Values quoted from earlier work in patent publication US20180271760A1, “Skin Care Compositions” (priority 2017, published 2018).
≈ marks a conversion by molar mass, not a printed value.

Experiments:
[1] = in 4 weeks

SMILES | solubility in glycerol and glycols (glycerol and glycols) | solubility in water (water, solubility is pH dependent) | reduction of TEWL [1]
O=C(O)CCCCCCCC(=O)O [Azelaic acid] | soluble | 2100 µg/mL (≈ 11.2 mM) | 
NC(=O)c1cccnc1 [niacinamide] |  |  | 24%
